According to patent US9266872B2, “2-hydroxyarylamide derivative or pharmaceutically acceptable salt thereof, preparation method thereof, and pharmaceutical composition for preventing or treating cancer containing same as active ingredient” (KOREA RESEARCH INSTITUTE OF BIOSCIENCE AND BIOTECHNOLOGY, priority 2011, dated 2016):

Biological target: T1, TMPRSS4 serine protease (Homo sapiens, UniProt Q9NRS4)
T1 construct: TMPRSS4 serine protease domain (205th Val˜437th Leu) was cloned in pET21b/NdeI-XhoI; inferred from pET21b XhoI cloning and Ni-NTA purification) (C); made in house; host or cells: E. coli BL21 (DE3)
Assay: Inhibitory effect on TMPRSS4 serine protease activity using peptide substrate
Assay type: biochemical
Settings: for inhibition at 30 µM: read-out: Intracellular protease activity Inhibition % 30 uM; for inhibition at 10 µM / Intracellular protease activity Inhibition % 10 uM: 10 uM compound; for inhibition at 10 µM: read-out: Intracellular protease activity Inhibition % 10 uM; for inhibition at 100 µM: 100 uM compound, read-out: Intracellular protease activity Inhibition % 100 uM
Method: TMPRSS4 serine protease domain (205th Val˜437th Leu) was cloned in pET21b/NdeI-XhoI, which was introduced in E. coli BL21 (DE3). At this time, FlagX2-enterokinase cleavage site ([…]; total 15 amino acids) was inserted in N-terminal of TMPRSS4 serine protease domain as shown in FIG. 1. The forward and reverse primers for PCR used for the cloning were presented by SEQ. ID. NO: 1 and NO: 2.
The cells were cultured in 10 ml of LB containing ampicillin at 37° C. overnight. IL of LB+ampicillin was added thereto, followed by further culture until OD reached 0.6˜0.8. 0.1 mM IPTG was added thereto, followed by further culture for 16 hours. Cell pellet was obtained, purified by Ni-NTA (Qiagen), and dialyzed. TMPRSS4 serine protease (pro-form) labeled with 2 mg of 2Xflag-enterokinase cleavage site was conjugated to Ni-NTA resin (4°, overnight). Enterokinase (NEB) was treated thereto at the concentration of 0.0002%/w/w at room temperature for 5 hours. The sample was washed, eluted with 50 mM imidazole in 20 mM of sodium phosphate buffer, and then dialyzed.
The protein activity was evaluated by measuring fluorescence shown during hydrolysis of the peptide. […] Reaction was induced after adding 100 μM of the peptide substrate into reaction buffer (50 mM Tris-HCl (pH 8.0), 10 mM CaCl2, 1 μM ZnCl2). Then, fluorescence was measured at 5 minutes interval (excitation 385 nm, emission 455 nm).
Then, fluorescence (excitation 385 nm/emission 455 nm) was measured at 5 minutes interval for 150 minutes. […] Dimethylsulfoxide (DMSO) was used as the negative control.

[1] = 30 uM compound, kallikrein peptide substrate 100 μM, DMSO negative control
[2] = kallikrein peptide substrate 100 μM, DMSO negative control

T1 sequence (Q9NRS4 205-437): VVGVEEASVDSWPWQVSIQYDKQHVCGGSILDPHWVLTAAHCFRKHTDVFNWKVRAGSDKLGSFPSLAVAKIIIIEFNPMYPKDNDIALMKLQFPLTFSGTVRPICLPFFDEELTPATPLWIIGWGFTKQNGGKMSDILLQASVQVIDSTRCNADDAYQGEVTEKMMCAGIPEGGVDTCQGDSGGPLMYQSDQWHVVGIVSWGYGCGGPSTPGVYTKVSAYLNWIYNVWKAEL

| Compound | TMPRSS4 serine protease active form activity (hydrolysis of peptide substrate) (1 mM, trypsin and kallikrein peptide substrates) | inhibition at 30 µM [1] | inhibition at 10 µM [2] | Intracellular protease activity Inhibition % 10 uM [2] | inhibition at 100 µM [2] | Intracellular protease activity Inhibition % 30 uM [1] |
| --- | --- | --- | --- | --- | --- | --- |
| NCCc1ccc(S(=O)(=O)F)cc1 [AEBSF, reference compound] | inhibited | – | – | – | – | – |
| O=C(Nc1cc(C(F)(F)F)cc(C(F)(F)F)c1)c1cc(Cl)cc(Cl)c1O [Example 2, N-(3,5-bis(trifluoromethyl)phenyl)3,5-dichloro-2-hydroxybenzamide] | – | 100% | – | – | – | – |
| Cc1ccc(O)c(C(=O)Nc2cc(C(F)(F)F)cc(C(F)(F)F)c2)c1 [Example 3, N-(3,5-bis(trifluoromethyl)phenyl)-2-hydroxy-5-methylbenzamide] | – | 64% | 0% | – | – | – |
| O=C(Nc1ccc(F)c(C(F)(F)F)c1)c1cc(Cl)ccc1O [Example 4, 5-chloro-N-(4-fluoro-3-(trifluoromethyl)phenyl)-2-hydroxybenzamide] | – | 86% | 51 to 100% | 64% | 98% | – |
| O=C(Nc1cc(C(F)(F)F)cc(C(F)(F)F)c1)c1ccccc1O [Example 5, N-(3,5-bis(trifluoromethyl)phenyl)-2-hydroxybenzamide] | – | 20% | 0% | – | – | – |
| COc1ccc(O)c(C(=O)Nc2cc(C(F)(F)F)cc(C(F)(F)F)c2)c1 [Example 7, N-(3,5-bis(trifluoromethyl)phenyl)-2-hydroxy-5-methoxybenzamide] | – | 53% | 0% | – | – | – |
| O=C(Nc1cc(C(F)(F)F)cc(C(F)(F)F)c1)c1cc(Br)ccc1O [Example 9, N-(3,5-bis(trifluoromethyl)phenyl)-5-bromo-2-hydroxybenzamide] | – | 84% | 51 to 100% | 54% | – | – |
| O=C(Nc1cccc(C(F)(F)F)c1)c1cc(Cl)ccc1O [Example 10, 5-chloro-N-(3-(trifluoromethyl)phenyl)-2-hydroxybenzamide] | – | 91% | 37% | – | – | – |
| N#Cc1cccc(NC(=O)c2cc(Cl)ccc2O)c1 [Example 11, 5-chloro-N-(3-cyanophenyl)-2-hydroxybenzamide] | – | 47% | 12% | – | 88% | – |
| N#Cc1ccc(NC(=O)c2cc(Cl)ccc2O)cc1 [Example 12, 5-chloro-N-(4-cyanophenyl)-2-hydroxybenzamide] | – | 29% | – | – | 69% | – |
| O=C(Nc1cc(C(F)(F)F)cc(C(F)(F)F)c1)c1ccc(C(F)(F)F)cc1O [Example 13, N-(3,5-bis(trifluoromethyl)phenyl)-4-(trifluoromethyl)-2-hydroxybenzamide] | – | 79% | 32% | – | – | – |
| O=C(Nc1cc(C(F)(F)F)cc(C(F)(F)F)c1)c1cc(F)ccc1O [Example 14, N-(3,5-bis(trifluoromethyl)phenyl)-5-fluoro-2-hydroxybenzamide] | – | 55% | 0% | – | – | – |
| O=C(Nc1ccc(C(F)(F)F)cc1)c1cc(Cl)ccc1O [Example 15, 5-chloro-N-(4-(trifluoromethyl)phenyl)-2-hydroxybenzamide] | – | 100% | 22% | – | – | – |
| O=C(Nc1ccc(Br)c(C(F)(F)F)c1)c1cc(Cl)ccc1O [Example 16, N-(4-bromo-3-(trifluoromethyl)phenyl)-5-chloro-2-hydroxybenzamine] | – | – | – | 80% | 98% | 93% |
| O=C(Nc1cc(C(F)(F)F)ccc1C(F)(F)F)c1cc(Cl)ccc1O [Example 18, N-(2,5-bis(trifluoromethyl)phenyl)-5-chloro-2-hydroxybenzamine] | – | 54% | 46% | – | – | – |
| O=C(Nc1cc(C(F)(F)F)ccc1Br)c1cc(Cl)ccc1O [Example 20, N-(2-bromo-5-(trifluoromethyl)phenyl)-5-chloro-2-hydroxybenzamide] | – | 100% | 40% | – | – | – |
| O=C(Nc1cc(C(F)(F)F)ccc1F)c1cc(Cl)ccc1O [Example 21, 5-chloro-N-(2-fluoro-5-(trifluoromethyl)phenyl)-2-hydroxybenzamide] | – | 100% | – | – | – | – |
